In US20060167006A1, “Method of treatment” (priority 2003, published 2006):
Where “and” joins values, the source holds several entries; their conditions need not be identical. Identical values can stand only once. Entries after “also recorded” stand apart in the source; their conditions may differ. Like-named read-outs stand apart in the source and are kept apart here.

Columns and labels:
[1] = test system: Mia-PaCa-2 cells; experiment: Growth factor-induced proliferation (MTT), Mia-PaCa-2; format: cell-based, human; settings: MTT; for Maximal effect of growth factor on cell growth: Mia-PaCa-2, growth factor alone (absence of Compound I), 72 hours
Experimental: (§1) Cell culture and MTT assay: Human pancreatic cancer cell lines are routinely grown in DMEM (Colo-357 and Mia-PaCa-2) or RPMI (Aspc-1, BxPc-3, Capan-1, and T3M4) supplemented with 10% FBS, 100 U/ml penicillin, and 100 μg/ml streptomycin (complete medium). To assess cell proliferation, the MTT test is employed. […] After 48 or 72 hours of incubation, 3-(4,5-methylthiazol-2-yl)-2,5-diphenyl-tetrazolium bromide (MTT) is added (50 μg/well) for 4 hours. Formazan products are solubilized with acidic isopropanol, and the optical density is measured at 570 nm. […] All experiments are performed in triplicate.
(§2) EGF-induced proliferation of both Mia-PaCa-2 and T3M4 cell lines in a dose-dependent manner is seen with maximal effects of +72% ±7.5% (Mia-PaCa-2) and +52% ±23% (T3M4). […] FGF-2 markedly stimulates cell growth in Mia-PaCa-2 cell lines with maximal effects of +79% ±6%, and only slightly stimulated T3M4 cell lines, with maximal effects of +7% ±4%. […] Both cell lines are less sensitive to IGF-1 stimulation compared with EGF and FGF-2, with maximal effects of +24% ±2% in Mia-PaCa-2 and +17% ±4% in. T3M4.

[2] = test system: T3M4 cells; experiment: Growth factor-induced proliferation (MTT), T3M4; format: cell-based, human; settings: MTT; for Maximal effect of growth factor on cell growth: T3M4, growth factor alone (absence of Compound I), 72 hours
Experimental: as §1, §2

[3] = test system: TAKA-1 cells; experiment: MTT cell growth assay, TAKA-1 cells (Example 1); format: cell-based, Syrian golden hamster; settings: 72 h
Source text: (§3) Cell culture and proliferation assay: The following materials are purchased: FCS, RPMI and Dulbecco's modified Eagle medium (DMEM), trypsin-EDTA solution, penicillin-streptomycin solution from Biochrom K G (Berlin, Germany). All the other reagents are from Sigma Chemical Co. (St. Louis, Mo., USA). ASPC-1, MIA PaCA-2, human pancreatic cell lines are obtained from American Type Culture Collection (Rockville, Md.). Compound I is kindly provided by Novartis Pharma AG (Basel, Switzerland). T3M4 human pancreatic cell lines are a gift from Dr. R. S. Metzgar (Durham, N.C., USA). TAKA-1 immortalized Syrian golden hamster pancreatic ductal cells are a gift from Prof. P. Pour (University of Nebraska, Omaha, Nebr., USA). Human pancreatic cancer cell lines are routinely grown in DMEM (MIA-PaCA-2) or RPMI (ASPC-1, T3M4) supplemented with 10% FCS, 100 U/ml penicillin and 100 μg/ml streptomycin (complete medium).
TAKA-1 cells are grown in RPMI supplemented with 10% FCS, 100 U/ml penicillin and 100 μg/ml streptomycin. Cells are seeded overnight at a density of 5000 cells/well in 96-well plates and the proliferation assay is performed as described above. […] After 72 hours, 3-(4,5-methylthiazol-2-yl)-2,5-diphenyl-tetrazolium bromide (MTT) is added (50 μg/well) for 4 hours. Cellular MTT is solubilized with acidic isopropanol and the optical density is measured at 570 nm using a plate reader (Dynatech MR 7000). All experiments are performed in triplicates.
Statistical analysis: Results are expressed as mean±SD. For statistical analysis, the Student t-test is used. Significance is defined as p<0.05.

[4] = test system: ASPC-1 cells; experiment: MTT cell growth assay, ASPC-1 cells (Example 1); format: cell-based, human
Source text: as §3
(§4) TAKA-1 cells are grown in RPMI supplemented with 10% FCS, 100 U/ml penicillin and 100 μg/ml streptomycin. Cells are seeded overnight at a density of 5000 cells/well in 96-well plates and the proliferation assay is performed as described above. […] Cellular MTT is solubilized with acidic isopropanol and the optical density is measured at 570 nm using a plate reader (Dynatech MR 7000). […]
(§5) Statistical analysis: Results are expressed as mean±SD. […]

[5] = test system: MIA PaCA-2 cells; experiment: MTT cell growth assay, MIA PaCA-2 cells (Example 1); format: cell-based; settings: Homo sapiens, MIA PaCa-2, 72 h, Mia-Paca-2, 75 μM Compound I, read-out: Percent growth inhibition by comparison with control cell growth
Source text: as §3, §4, §5

[6] = test system: T3M4 cells; experiment: MTT cell growth assay, T3M4 cells (Example 1); format: cell-based, human
Source text: as §3, §4, §5

[7] = test system: TAKA-1 cells and the three pancreatic cancer cell lines; experiment: MTT cell growth assay, span over all four lines (Example 1); format: cell-based; settings: span over TAKA-1 and three pancreatic cancer cell lines
Source text: as §3, §4, §5

[8] = test system: ASPC-1 cells; experiment: GI50 by MTT assay, Aspc-1 (Example 2); format: cell-based; settings: Homo sapiens, ASPC1, read-out: GI50 concentration
Source text: (§6) Material and Methods: RPMI-1640 DMEM, trypsin-EDTA, and penicillin-streptomycin are purchased from Invitrogen (Karlsruhe, Germany); FBS from PAN Biotech (Aidenbach, Germany); human recombinant PDGF, IGF-1 and FGF-2 from R&D Systems (Abingdon, United Kingdom), and EGF from Upstate Biotechnology (Hamburg, Germany). Phospho-PDGFR-beta (tyr857) and P-EGFR (tyr1173) polyclonal antibodies are purchased from Santa Cruz Biotechnology, Inc. (Santa Cruz, Calif., USA). Phospho-p44/42 MAPK (Thr202/Tyr204) antibodies are purchased from Cell Signaling Technology (Frankfurt, Germany), anti-rabbit IgG HRPO-linked antibodies and ECL immunoblotting detection reagents from Amersham Biosciences (Amersham Life Science, Amersham, UK), and anti-goat IgG-HPRO peroxidase linked antibodies from Santa Cruz Biotechnology, Inc. (Santa Cruz, Calif., USA). Complete mini-EDTA-free protease inhibitor cocktail tablets and Annexin-V-Fluos are purchased from Roche GmbH (Mannheim, Germany). All other reagents are from Sigma Chemical Company (Taufkirchen, Germany).
(§7) Cell culture and MTT assay: Human pancreatic cancer cell lines are routinely grown in DMEM (Colo-357 and Mia-PaCa-2) or RPMI (Aspc-1, BxPc-3, Capan-1, and T3M4) supplemented with 10% FBS, 100 U/ml penicillin, and 100 μg/ml streptomycin (complete medium). […] Formazan products are solubilized with acidic isopropanol, and the optical density is measured at 570 nm. […]

[9] = test system: BxPc-3 cells; experiment: GI50 by MTT assay, BxPc-3 (Example 2); format: cell-based; settings: Homo sapiens, BxPc-3, complete medium (10% FBS), 48 h, read-out: GI50 concentration
Source text: as §6, §7

[10] = test system: Capan-1 cells; experiment: GI50 by MTT assay, Capan-1 (Example 2); format: cell-based; settings: Homo sapiens, Capan-1, complete medium (10% FBS), 48 h, read-out: GI50 concentration
Source text: as §6, §7

[11] = test system: Colo-357 cells; experiment: GI50 by MTT assay, Colo-357 (Example 2); format: cell-based; settings: Homo sapiens, COLO357, Colo-357, complete medium (10% FBS), 48 h, read-out: GI50 concentration
Source text: as §6, §7

[12] = test system: Mia-PaCa-2 cells; experiment: GI50 by MTT assay, Mia-PaCa-2 (Example 2); format: cell-based; settings: Homo sapiens, read-out: GI50 concentration
Source text: as §6, §7

[13] = test system: T3M4 cells; experiment: GI50 by MTT assay, T3M4 (Example 2); format: cell-based; settings: Homo sapiens, T3M4, complete medium (10% FBS), 48 h, read-out: GI50 concentration
Source text: as §6, §7

[14] = test system: six tested pancreatic cancer cell lines; experiment: GI50 by MTT assay, span over all six pancreatic cancer cell lines; format: cell-based; settings: Homo sapiens, read-out: GI50 concentration, range over cell lines
Source text: as §6, §7

[15] = test system: Mia-PaCa-2 cells; experiment: Propidium iodide staining of cell death, Mia-PaCa-2; format: cell-based, human; settings: Mia-PaCa-2, Compound I at GI50, 1% FBS medium; control 10.7% ±2.5%
Source text: (§8) The resulting DNA histograms are interpreted using the Cell Quest Pro software (Becton Dickinson and Company, New York, USA).

[16] = test system: T3M4 cells; experiment: Propidium iodide staining of cell death, T3M4; format: cell-based, human; settings: T3M4, Compound I at GI50, 1% FBS medium; control 5.7% ±2.8%
Source text: as §8

[17] = test system: pancreatic cancer cell lines; experiment: FACS cell cycle analysis; format: cell-based, human; settings: 48 hours of incubation, Compound I at GI50, compared to untreated cells
Source text: as §8

[18] = test system: MAPK; experiment: Western blot of MAPK phosphorylation in growth factor-conditioned cells; format: cell-based, human; settings: growth factor-conditioned Mia-PaCa-2 and T3M4 cells, Western blot
Experimental: (§9) Western blot analysis: Cell culture monolayers are washed twice with ice-cold PBS and lysed with buffer containing Tris-HCl (50 mM, pH 7.4), NP-40 (1%), Na-deoxycholate (0.25%), NaCl (150 mM), EDTA (1 mM), PMSF (1 mM), Na3VO4 (1 mM), NaF (1 mM) and one tablet of complete mini-EDTA-free protease inhibitor cocktail (in 10 ml buffer). Protein concentration is determined by the BCA protein assay (Pierce Chemical Co., Rockford, Ill., USA). 30 μg of cell lysates are separated on SDS-polyacrylamide gels and electroblotted onto nitrocellulose membranes. Membranes are then incubated in blocking solution (5% nonfat-milk in 20 mM Tris-HCl, 150 mM NaCl, 0.1% Tween-20) (TBS-T), followed by incubation with the indicated antibodies at 4° C. overnight. The membranes are then washed in TBS-T and incubated with HRPO-conjugated secondary antibodies for 1 hour at room temperature. Antibody detection is performed with an enhanced chemiluminescence reaction. Statistical analysis: Results are expressed as mean±SEM. For statistical analysis, the Student's t-test is used. Significance is defined as p<0.05.

[19] = target: T1, EGFR (Homo sapiens, UniProt P00533); experiment: Western blot of EGFR phosphorylation in growth factor-conditioned cells; format: cell-based; settings: growth factor-conditioned Mia-PaCa-2 and T3M4 cells
T1 construct: endogenous in cells; host or cells: Mia-PaCa-2 and T3M4 pancreatic cancer cells
Experimental: as §9

[20] = test system: pancreatic tumor cells; settings: complete medium (10% FCS) and 1% FCS medium
Source text: as §8

[21] = test system: Lung cancer (6 cell lines); settings: other reported cancer cells, read-out: GI50 concentration; cited from earlier work
[22] = test system: Lung cancer (A549 cell line); settings: other reported cancer cells, read-out: GI50 concentration; cited from earlier work
[23] = test system: colorectal cancer (HT29); settings: other reported cancer cells, read-out: GI50 concentration; cited from earlier work
[24] = test system: CML (K562 cell lines); settings: other reported cancer cells, read-out: GI50 concentration; cited from earlier work

T1 sequence (P00533 25-1210): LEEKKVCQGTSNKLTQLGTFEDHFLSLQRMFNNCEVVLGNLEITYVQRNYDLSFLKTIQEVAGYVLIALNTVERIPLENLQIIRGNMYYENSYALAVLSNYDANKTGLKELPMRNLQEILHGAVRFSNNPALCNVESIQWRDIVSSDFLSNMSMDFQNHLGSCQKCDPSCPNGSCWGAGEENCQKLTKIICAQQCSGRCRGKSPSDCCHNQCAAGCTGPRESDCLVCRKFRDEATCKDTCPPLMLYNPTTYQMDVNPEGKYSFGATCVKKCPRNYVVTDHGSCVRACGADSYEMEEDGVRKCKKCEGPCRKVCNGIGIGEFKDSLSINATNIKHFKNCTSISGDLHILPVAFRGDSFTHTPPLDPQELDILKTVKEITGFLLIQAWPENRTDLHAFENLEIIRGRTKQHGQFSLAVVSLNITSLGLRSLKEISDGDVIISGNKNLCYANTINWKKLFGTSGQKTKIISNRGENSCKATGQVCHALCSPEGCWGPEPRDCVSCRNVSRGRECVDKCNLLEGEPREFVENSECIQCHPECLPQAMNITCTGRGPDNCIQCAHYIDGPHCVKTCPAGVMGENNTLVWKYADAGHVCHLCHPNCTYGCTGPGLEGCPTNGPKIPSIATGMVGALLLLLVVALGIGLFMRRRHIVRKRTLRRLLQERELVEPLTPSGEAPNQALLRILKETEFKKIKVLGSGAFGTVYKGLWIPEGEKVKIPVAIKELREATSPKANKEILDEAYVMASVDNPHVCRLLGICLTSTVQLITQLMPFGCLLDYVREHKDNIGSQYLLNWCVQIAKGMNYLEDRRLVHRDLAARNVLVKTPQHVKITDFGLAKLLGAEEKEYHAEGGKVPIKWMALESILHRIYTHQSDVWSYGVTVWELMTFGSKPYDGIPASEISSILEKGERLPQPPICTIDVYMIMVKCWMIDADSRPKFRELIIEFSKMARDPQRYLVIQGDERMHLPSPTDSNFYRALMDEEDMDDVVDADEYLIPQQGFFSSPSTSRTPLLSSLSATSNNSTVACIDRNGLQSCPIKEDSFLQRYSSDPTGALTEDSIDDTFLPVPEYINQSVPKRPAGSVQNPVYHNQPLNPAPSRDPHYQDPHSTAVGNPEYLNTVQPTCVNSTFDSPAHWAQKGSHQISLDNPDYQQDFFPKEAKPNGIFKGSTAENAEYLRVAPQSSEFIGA

In the case of “FGF-2: human recombinant FGF-2 from R&D Systems”, the “Maximal effect of growth factor on cell growth” value (“Maximal effect of growth factor” for short) [1] is reported as “+79% ±6” and the “Maximal effect of growth factor” value [2] is reported as “+7% ±4”.
For “IGF-1: human recombinant IGF-1 from R&D Systems”, the “Maximal effect of growth factor” value [1] was “+24% ±2” and the “Maximal effect of growth factor” value [2] was “+17% ±4”.
For `Cc1ccc(NC(=O)c2ccc(CN3CCN(C)CC3)cc2)cc1Nc1nccc(-c2cccnc2)n1` [Compound I], the inhibition at 25 µM ([3]; Mesocricetus auratus, TAKA-1, 25 μM Compound I, read-out: Percent growth inhibition by comparison with control cell growth) was 70.9%, the inhibition at 75 µM ([3]; Mesocricetus auratus, TAKA-1, 75 μM Compound I, read-out: Percent growth inhibition by comparison with control cell growth) was 90.8% and the “Percent growth inhibition by comparison with control cell growth” value (from here on “Percent growth inhibition by comparison”) ([3]; TAKA-1, 25 μM Compound I, 25 µM) was −65% and −67.9%. The “Percent growth inhibition by comparison” value ([3]; TAKA-1, 75 μM Compound I, 75 µM) was −91.5% and −90.6%, the “Percent growth inhibition by comparison” value ([4]; Aspc-1, 5 μM Compound I, 72 h, 5 µM) was −12.9% and −4.8% and −3.7% and the inhibition at 75 µM ([4]; Homo sapiens, ASPC1, 72 h, Aspc-1, 75 μM Compound I, read-out: Percent growth inhibition by comparison with control cell growth) was 85.6%. The inhibition at 75 µM [5] was 86.6%, the inhibition at 75 µM ([6]; Homo sapiens, T3M4, 72 h, T3M4, 75 μM Compound I, read-out: Percent growth inhibition by comparison with control cell growth) was 85.6% and the “Percent growth inhibition by comparison” value ([6]; T3M4, 5 μM Compound I, 72 h, 5 µM) was −12.9% and −4.8% and −3.8%. For the same molecule, the “Minimal threshold effects on cell growth” value ([7]; 5 μM Compound I, p>0.05) was −4% to −9, the “Maximal inhibitory effects on cell growth” value ([7]; 75 µM Compound I, p<0.001) was −77% to −90 and the GI50 ([8]; Aspc-1, complete medium (10% FBS), 48 h, MTT) was 31.5 µM. The GI50 ([8]; Aspc-1, low serum conditions (1% FCS)) was 20 µM, the GI50 [9] was 21 µM and the GI50 [10] was 19 µM. It also gave a GI50 [11] of 17 µM, a GI50 ([12]; Mia-PaCa-2, complete medium (10% FBS), 48 h, MTT) of 26 µM and a GI50 ([12]; Mia-PaCa-2, low serum conditions (1% FCS)) of 9 µM. For the same molecule, the GI50 [13] was 25 µM, the GI50 ([14]; all six pancreatic cancer cell lines, 10% FBS/FCS medium) was 17 to 31.5 µM and the GI50 ([14]; pancreatic cancer cell lines, low serum conditions (1% FCS)) was 9 to 20 µM. For the same molecule, the “Cell death by propidium iodide staining” value [15] was 33.7±16.5%, the “Cell death by propidium iodide staining” value [16] was 26.8% +16.5 and the “Change in cell cycle pattern” value [17] was “does not reveal any significant changes in the cell cycle pattern; also recorded: no cell cycle change”. For the same molecule, the “Inhibitory effect on IGF-1-induced proliferation” value ([1]; Mia-PaCa-2, IGF-1 plus Compound I at GI50, 72 hours) was “no significant inhibitory effects”, the “Inhibitory effect on IGF-1-induced proliferation” value ([2]; T3M4, IGF-1 plus Compound I at GI50, 72 hours) was “no significant inhibitory effects” and the “Inhibition of MAPK activation” value [18] was “does not inhibit activation”. For the same molecule, the “Inhibition of EGFR activation” value [19] was “does not inhibit activation”, the Apoptotic cell death [20] was “No apoptotic cell death is observed” and the GI50 [21] was ~5 µM. The GI50 [22] was 2 to 3 µM, the GI50 [23] was 6 µM and the GI50 [24] was 0.56 µM.
